The text below walks through data of patent publication EP0411183A1, “Ascorbic acid derivative” (NIPPON HYPOX LABORATORIES INCORPORATED, priority 1989, dated 1991).

For assay [1], the system named is superoxide anion radicals. Description: Effects on formazan formation in the xanthine-xanthine oxidase-Nitrotetrazolium Blue system. In kind it is biochemical. To be noted: for Inhibition ratio (%) of formazan formation: phosphate buffer pH 7.8, 30°C, 10 minutes; for formazan formation (result in words): summary of Table-3. As for the experimental part:
Specimens were added to a 0.05 M phosphate buffer solution (pH 7.8) containing xanthine, EDTA 2Na and Nitrotetrazolium Blue (NTB) so as to provide the respective final concentrations of 5x10⁻⁵ M, 1x10⁻⁴ M and 5x10⁻⁴ M and warmed at 30°C for 3 minutes. Xanthine oxidase (manufactured by Sigma Corp.) was added, and the resulting specimens were warmed at 30°C for 10 minutes to colorimetrically determine formazan formed by superoxide anion radicals. The inhibition ratio of formazan formation was determined from the results at concentrations of 0.5 mM and 4 mM of each specimen.

Assay [2] is described as follows: Antioxidant action examined by using stable radicals (DPPH reduction activity, M.S. Blois method). The format is biochemical. The conditions noted are these: 0.1 mM DPPH solution in ethanol, absorbance at 517 nm after 20 minutes; read-out: 50% radical eliminating concentration. On the procedure:
Test example 1 (Antioxidant action examined by using stable radicals)
Reduction activity of α,-α-diphenyl-β-picrylhydrazyl (DPPH) which was a stable free radical was examined according to the M.S. Blois method (Nature, vol. 181, page. 1199, 1958) and used as an index to antioxidant action. Thus, specimens were added to 3 mℓ of a 0.1 mM DPPH solution in ethanol, and absorbance at a wavelength of 517 nm was measured using a spectrophotometer after 20 minutes. The difference in absorbance from the solvent control [0.5% or less of dimethylformamide (DMF)] was taken as the reduction activity.
On the technique in general: The DPPH test is a chemical assay of radical scavenging.

In the case of “L-5,6-O-isopropylidene-3-O-(3-butanone) ascorbic acid [compound 022]”, the “Inhibition ratio (%) of formazan formation” value in assay [1] (Concentration 0.5 mM) was 22.6%; in assay [1] (Concentration 4 mM) it was 26.7%. In addition, the “formazan formation (result in words)” value in assay [1] was “remarkably inhibited formazan formation”. Further, the IC50 in assay [2] came to 20 µM.

As for “L-5,6-O-isopropylidene-3-O-methylcarbomethylascorbic acid [compound 021]”, the “Inhibition ratio (%) of formazan formation” value in assay [1] (Concentration 0.5 mM) was 9.2%; in assay [1] (Concentration 4 mM), 47.4%. Further, the “formazan formation (result in words)” value in assay [1] was “remarkably inhibited formazan formation”. For the same compound, the IC50 in assay [2] turned out to be 17 µM.

Consider `CC1(C)OCC(C2OC(=O)C(O)=C2OCc2ccccn2)O1` [compound 007, L-5,6-O-isopropylidene-3-O-2′-pyridylmethylascorbic acid], for which the IC50 in assay [2] was determined as 23 µM.
